Results: ChEMBL document CHEMBL2202954, “The effect of PLC-γ2 inhibitors on the growth of human tumour cells” (2012)

Experiments:
Format in all cases: functional
DU-145 = test: Cytotoxicity against human DU145 cells assessed as cellular growth at 10 uM by SRB assay
EKVX = test: Cytotoxicity against human EKVX cells assessed as cellular growth at 10 uM by SRB assay
OVCAR-8 = test: Cytotoxicity against human OVCAR8 cells assessed as cellular growth at 10 uM by SRB assay
RPMI-8226 = test: Cytotoxicity against human RPMI8226 cells assessed as cellular growth at 10 uM by SRB assay
UACC-257 = test: Cytotoxicity against human UACC257 cells assessed as cellular growth at 10 uM by SRB assay
SK-MEL-28 = test: Cytotoxicity against human SK-MEL-28 cells assessed as cellular growth at 10 uM by SRB assay
NCI-H23 = test: Cytotoxicity against human NCI-H23 cells assessed as cellular growth at 10 uM by SRB assay
UACC-62 = test: Cytotoxicity against human UACC62 cells assessed as cellular growth at 10 uM by SRB assay
HT-29 = test: Cytotoxicity against human HT-29 cells assessed as cellular growth at 10 uM by SRB assay
MOLT-4 = test: Cytotoxicity against human MOLT4 cells assessed as cellular growth at 10 uM by SRB assay
MCF7 = test: Cytotoxicity against human MCF7 cells assessed as cellular growth at 10 uM by SRB assay
SNB-75 = test: Cytotoxicity against human SNB75 cells assessed as cellular growth at 10 uM by SRB assay
SK-MEL-5 = test: Cytotoxicity against human SK-MEL-5 cells assessed as cellular growth at 10 uM by SRB assay
Hs-578T = test: Cytotoxicity against human Hs578T cells assessed as cellular growth at 10 uM by SRB assay
NCI-H322M = test: Cytotoxicity against human NCI-H322M cells assessed as cellular growth at 10 uM by SRB assay
BT-549 = test: Cytotoxicity against human BT549 cells assessed as cellular growth at 10 uM by SRB assay
ACHN = test: Cytotoxicity against human ACHN cells assessed as cellular growth at 10 uM by SRB assay
Malme-3M = test: Cytotoxicity against human MALME-3M cells assessed as cellular growth at 10 uM by SRB assay
M14 = test: Cytotoxicity against human M14 cells assessed as cellular growth at 10 uM by SRB assay
OVCAR-3 = test: Cytotoxicity against human OVCAR3 cells assessed as cellular growth at 10 uM by SRB assay

Row | Structure (SMILES) | Activity (DU-145) [%] | Activity (EKVX) [%] | Activity (OVCAR-8) [%] | Activity (RPMI-8226) [%] | Activity (UACC-257) [%] | Activity (SK-MEL-28) [%] | Activity (NCI-H23) [%] | Activity (UACC-62) [%] | Activity (HT-29) [%] | Activity (MOLT-4) [%] | Activity (MCF7) [%] | Activity (SNB-75) [%] | Activity (SK-MEL-5) [%] | Activity (Hs-578T) [%] | Activity (NCI-H322M) [%] | Activity (BT-549) [%] | Activity (ACHN) [%] | Activity (Malme-3M) [%] | Activity (M14) [%] | Activity (OVCAR-3) [%]
1 | CC1(C)CC(=O)c2cc3c(N)c(C(=O)Nc4ccccc4Cl)sc3nc2C1 | 109.85 | 108.8 | 109.63 | 108.32 | 104.02 | 116.26 | 108.01 | 100.17 | 105.6 | 104.6 | 111.34 | 118.5 | 100.73 | 112.91 | 131.48 | 128 | 114.15 | 121.48 | 118.29 | 121.58
2 | N#Cc1ccc(NC(=O)c2sc3nc4c(cc3c2N)C(=O)CCC4)cc1 | 94.94 | 93.58 | 104.55 | 95.69 | 105.99 | 105.89 | 106.13 | 99.27 | 84.91 | 114.77 | 97.4 | 113.44 | 92.55 | 110.8 | 102.55 | 108.43 | 107.57 | 89.34 | 105.98 | 113.89
3 | Cc1cccc(-c2nc(-c3cccs3)no2)c1 | 120 | 84.59 | 98.72 | 92.97 | 93.98 | 109.6 | 89.36 | 86.85 | 98.29 | 96.35 | 39.04 | 85.75 | 82.84 | 81.63 | 95.9 | 88.13 | 99.9 | 112.31 | 102.43 | 104
4 | O=C(Nc1ccc2oc(=O)ccc2c1)c1ccc(-c2ccc(Br)cc2)o1 | 109.38 | 113.5 | 101.05 | 108.92 | 114.76 | 119.2 | 103.68 | 104.75 | 108.43 | 96.93 | 98.67 | 104.41 | 100.82 | 104.83 | 154.44 | 118.79 | 121.66 | 130.92 | 114.52 | 125.42
5 | Cc1cc(C)c(NC(=O)c2sc3nc4c(cc3c2N)C(=O)CCC4)c(C)c1 | 10.04 | 54.36 | 45.64 | 31.83 | 48.69 | 55.98 | 33.04 | 23.22 | 0.48 | 43.03 | 16.79 | 0 | 11.34 | 17.68 | 56.34 | 56.75 | 55.26 | 42.11 | 16.41 | 13.17
6 | O=c1/c(=C/c2ccccc2Cl)sc2nc(-c3ccccc3)nn12 | 92.88 | 99.45 | 97.99 | 50.72 | 85.66 | 109.04 | 86.7 | 83.77 | 112.54 | 69.85 | 91.04 | 64.38 | 93.49 | 89.46 | 96.56 | 91.77 | 97.57 | 92.95 | 76.15 | 108.39
7 | O=C(NCCc1ccccc1)c1[nH]c2ccccc2c1Cl | 91.9 | 57.12 | 84.42 | 71.07 | 96.54 | 106.79 | 84.26 | 84.19 | 100.49 | 70.04 | 83.19 | 79.43 | 82.39 | 97.21 | 98.86 | 91.75 | 90.71 | 109.22 | 106.45 | 72.81
